The source of these data is PMC12299890 (Pharmaceuticals, 2025).

Entries after “also recorded” stand apart in the source; their conditions may differ.

Series [1] is described as follows: Pharmacokinetics of MI in Wistar rat model after oral administration (Antonowski and co-workers). Type of series: in vivo. The conditions noted are these: rat serum; MI data of ref 30 vs SCI of this study. How it is done: Antonowski and co-workers examined the PK of MI in Wistar rat models.
Bioavailability studies in animal models are a critical step in evaluating how much of a substance is absorbed and becomes available in the body. A rat model is excellent to maximize the relevance of SCI to human health. Antonowski and co-workers used a rat model for the PK analysis of MI. In this study, a dose of 20 mg/kg MI was orally administrated to rats and afterwards, the serum concentration of MI was measured. […] Then, the concentration of MI began to decrease immediately. […] Studies should be extended to include intraperitoneal injection or direct injection into blood vessels to determine the bioactivity of these INSs.

The conditions of series [2]: cited from earlier work.
On the set-up of series [3]: method as in PMID 16250252. The conditions noted are these: male Sprague-Dawley rats; cited from earlier work.

For `O[C@H]1[C@H](O)[C@@H](O)[C@H](O)[C@@H](O)[C@H]1O` [MI, myo-inositol], the “AUC of MI compared with SCI” value in series [1] was “lower than for SCI”. Besides, in series [2] (oral MI), the “Side effects of MI administration” value is recorded as “no serious side effects”. Also, in series [2] (serum, oral 20 mg/kg MI), the “Time of highest MI serum concentration (Cmax) after oral administration” value is “first hour”. For the same compound, the “MI level 24 h after administration” value in series [2] (serum, oral MI) is “still higher than before the administration; also recorded: still higher than before the supplementation”.

With `O=C(O)[C@H]1O[C@@H](Oc2cc3oc(-c4ccc(O)cc4)cc(=O)c3c(O)c2O)[C@H](O)[C@@H](O)[C@@H]1O` [scutellarin], the “Relative bioavailability of oral administration compared to intraperitoneal injection” value in series [3] is listed as “very low”.
